Target: T1, human M4 muscarinic acetylcholine receptor (Homo sapiens, UniProt P08173)
T1 construct: expressed in transfected cells; host or cells: CHO-K1
T1 sequence (P08173 1-479): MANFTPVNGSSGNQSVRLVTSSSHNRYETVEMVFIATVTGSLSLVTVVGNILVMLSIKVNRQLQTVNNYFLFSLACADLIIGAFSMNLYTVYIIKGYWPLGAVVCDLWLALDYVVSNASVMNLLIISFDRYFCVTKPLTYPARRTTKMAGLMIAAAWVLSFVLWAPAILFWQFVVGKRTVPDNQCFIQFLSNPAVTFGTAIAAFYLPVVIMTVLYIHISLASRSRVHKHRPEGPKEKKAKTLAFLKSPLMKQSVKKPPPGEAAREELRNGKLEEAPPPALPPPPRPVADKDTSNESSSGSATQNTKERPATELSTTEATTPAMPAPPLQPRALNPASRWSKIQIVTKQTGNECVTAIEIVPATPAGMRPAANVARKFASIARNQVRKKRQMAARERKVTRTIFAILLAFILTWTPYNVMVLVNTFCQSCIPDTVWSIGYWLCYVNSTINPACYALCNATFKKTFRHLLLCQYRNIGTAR
Assay: human FLIPR-based M4 PAM assay (calcium mobilization, CHO-K1 cells with human M4 receptor and Gαqi5)
Type: cell-based
Conditions: inflection point (IP) of dose response curve, acetylcholine added at 20% of maximum response, read-out: M4 FLIPPR Hu IP
Protocol: In a typical experiment the M4 muscarinic acetylcholine receptor modulating activity of the compounds of the present invention was determined in accordance with the following experimental method. CHO-K1 cells stably transfected with human M4 receptor and chimeric G-protein Gαqi5 (Coward P, et al., Analytical Biochemistry, 270:242-248 (1999)) are thawed from liquid N2 storage, resuspended in growth medium, plated in black, clear bottom 384 well plates, and incubated 16-20 hours at 37° C., 5% CO2. On the day of assay, growth medium is removed, the cells are washed 2 times with wash buffer, and cells are incubated in dye loading buffer at 37° C., 5% CO2 for ˜1 hour. Following dye loading the cell plates are placed in a FLIPR Tetra instrument and while monitoring dye fluorescence (excitation […]), 10 uL of test substance at increasing concentrations is added, and fluorescence values are recorded for 4 min. Next, 10 uL of acetylcholine is added (final concentration calculated so as to achieve 20% of the maximum acetycholine response), and the fluorescence reading is continued for 3.5 min. In some cases, a third addition of acetylcholine (final concentration calculated to achieve 70% of the maximal acetylcholine response) is performed. The resulting dose response curves are fit to a 4 parameter logistic equation and the final result is determined as the inflection point (IP) of the curve
CHO-K1 cells stably transfected with human M4 receptor and chimeric G-protein Gαqi5 are thawed from liquid N2 storage, resuspended in growth medium, plated in black, clear bottom 384 well plates, and incubated 16-20 hours at 37° C., 5% CO2.
On the day of assay, growth medium is removed, the cells are washed 2 times with wash buffer, and cells are incuabted in dye loading buffer at 37° C., 5% CO2 for ˜1 h. Following dye loading the cell plates are placed in a FLIPR Tetra instrument and while monitoring dye fluorescence ([…]), 10 uL of test substance at increasing concentrations is added, and fluorescence values are recorded for 4 min. Next, 10 uL of acetylcholine is added (final concentration calculated so as to achieve 20% of the maximum acetycholine response), and the fluorescence reading is continued for 3.5 min. In some cases, a third addition of acetylcholine (final concentration calculated to achieve 70% of the maximal acetylcholine response) is performed.

Point of comparison: `Cc1cn2ccc(-c3nc(C#N)ccc3-c3cnc(CC(C)(C)C)o3)cc2n1` [Example 32, 6-(2-methylimidazo-[1,2-a]pyridin-7-yl)-5-(2-neopentyloxazol-5-yl)picolinonitrile], EC50 69 nM. Against it:
- Cc1nc2cc(-c3nc(C#N)ccc3-c3cnc(CC4CC(F)(F)C4)o3)ccn2n1 [Example 99, 5-(2-((3,3-difluorocyclobutyl)methyl)oxazol-5-yl)-6-(2-methyl-[1,2,4]triazolo[1,5-a]pyridin-7-yl) picolinonitrile] — within 1.5-fold, 89 nM
- CC(Cc1ncc(-c2ccc(C#N)nc2-c2ccn3ccnc3c2)o1)C(F)(F)F (racemic) [Example 38, 6-(imidazo[1,2-a]-pyridin-7-yl)-5-(2-(3,3,3-trifluoro-2-methylpropyl)oxazol-5-yl)picolinonitrile] — 3.1-fold higher, 212 nM
- CC(C)(C)Cc1ncc(-c2ccc(C#N)nc2-c2ccn3ccnc3c2)o1 [Example 16, 6-(imidazo[1,2-a]-pyridin-7-yl)-5-(2-neopentyloxazol-5-yl)picolinonitrile] — within 1.5-fold, 61 nM
- Cc1cn2ccc(-c3nc(C#N)ccc3-c3cnc(CC(O)C(C)C)o3)cc2n1 (stereo not drawn) [Example 92, 5-(2-(2-hydroxy-3-methylbutyl)oxazol-5-yl)-6-(2-methylimidazo [1,2-a]pyridin-7-yl)picolinonitrile] — 1.9-fold higher, 131 nM
- COc1cc2ccc(-c3nc(C)ccc3-c3cnc(Cc4ccccc4F)o3)cc2nn1 [Example 48, 2-(2-fluorobenzyl)-5-(2-(3-methoxycinnolin-7-yl)-6-methylpyridin-3-yl)oxazole] — 3.6-fold lower, 19 nM
- CC1(Cc2ncc(-c3ccc(C#N)nc3-c3cnc4c(c3)C(=O)N(CCF)C4)o2)CCCC1 [Example 96, 6-(6-(2-fluoroethyl)-5-oxo-6,7-dihydro-5H-pyrrolo[3,4-b]pyridin-3-yl)-5-(2-((1-methylcyclopentyl)methyl)oxazol-5-yl)picolinonitrile] — within 1.5-fold, 52 nM
- CC(C)(Cc1ncc(-c2ccc(C(F)F)nc2-c2ccc3cccnc3c2)o1)C(F)(F)F [Example 24, 5-(6-(difluoro-methyl)-2-(quinolin-7-yl)pyridin-3-yl)-2-(3,3,3-trifluoro-2,2-dimethylpropyl)-oxazole] — 2-fold higher, 136 nM
- Cc1ccc(-c2cnc(CC3CCCC3)o2)c(N2CCn3ccnc3C2)n1 [Example 56, 2-(cyclopentylmethyl)-5-(2-(5,6-dihydroimidazo[1,2-a]pyrazin-7(8H)-yl)-6-methylpyridin-3-yl)oxazole] — 6.3-fold lower, 11 nM
- Cc1nc2cc(-c3ncc(F)cc3-c3cnc(CCC(C)(C)F)o3)ccc2n1C [Example 105, 5-(2-(1,2-dimethyl-1H-benzo[d]imidazol-5-yl)-5-fluoropyridin-3-yl)-2-(3-fluoro-3-methylbutyl)oxazole] — 2.9-fold higher, 198 nM
- N#Cc1ccc(-c2cnc(CC3CCCC3)o2)c(-c2ccc3cccnc3c2)n1 [Example 50, 5-(2-(cyclopentylmethyl)oxazol-5-yl)-6-(quinolin-7-yl)picolinonitrile] — 2.9-fold lower, 24 nM
- CN1Cc2ccc(-c3nc(C(F)F)ccc3-c3cnc(CC(C)(C)C)o3)cc2C1=O [Example 15, 6-(6-(difluoro-methyl)-3-(2-neopentyloxazol-5-yl)pyridin-2-yl)-2-methylisoindolin-1-one] — within 1.5-fold, 80 nM
- Clc1ccc(-c2cnc(CC3CCCC3)o2)c(N2CCn3ccnc3C2)n1 [Example 57, 5-(6-chloro-2-(5,6-dihydroimidazo[1,2-a]pyrazin-7(8H)-yl)pyridin-3-yl)-2-(cyclopentylmethyl) oxazole] — 1.7-fold higher, 117 nM
- CN1Cc2ncc(-c3nc(C#N)ccc3-c3cnc(CC4(C)CCCC4)o3)cc2C1=O [Example 12, 6-(6-methyl-5-oxo-6,7-dihydro-5H-pyrrolo[3,4-b]-pyridin-3-yl)-5-(2-((1-methyl-cyclopentyl)-methyl)oxazol-5-yl)picolinonitrile] — 2-fold lower, 34 nM
- CC(C)Cc1ncc(-c2ccc(C#N)nc2-c2ccc3cccnc3c2)o1 [Example 61, 5-(2-isobutyloxazol-5-yl)-6-(quinolin-7-yl)picolinonitrile] — within 1.5-fold, 61 nM
- CN1Cc2ncc(-c3nc(C#N)ccc3-c3cnc(CC4(F)CCCC4)o3)cc2C1=O [Example 77] — 1.5-fold lower, 45 nM
- CC(C)(C)CCc1ncc(-c2ccc(C#N)nc2-c2ccc3cccnc3c2)o1 [Example 65, 5-(2-(3,3-dimethylbutyl)oxazol-5-yl)-6-(quinolin-7-yl)picolinonitrile] — within 1.5-fold, 96 nM
- Cc1cn2ccc(-c3nc(C#N)ccc3-c3cnc(CC4(F)CCCC4)o3)cc2n1 [Example 79, 5-(2-((l-fluorocyclopentyl)methyl)oxazol-5-yl)-6-(2-methylimidazo [1,2-a]pyridin-7-yl) picolinonitrile] — 2.2-fold lower, 31 nM
- N#Cc1ccc(-c2cnc(CC(F)C3CC3)o2)c(-c2ccc3cccnc3c2)n1 (single isomer, unassigned) [Example 71, 5-(2-(2-cyclopropyl-2-fluoroethyl)oxazol-5-yl)-6-(quinolin-7-yl)picolinonitrile (single compound)] — within 1.5-fold, 54 nM
- COCc1cn2ccc(-c3nc(C#N)ccc3-c3cnc(CC(C)(C)C)o3)cc2n1 [Example 37, 6-(2-(methoxy-methyl)imidazo-[1,2-a]pyridin-7-yl)-5-(2-neopentyl-oxazol-5-yl)picolino-nitrile] — within 1.5-fold, 78 nM
- CC(C)(F)CCc1ncc(-c2ccc(C#N)nc2-c2ccn3ccnc3c2)o1 [Example 104, 5-(2-(3-fluoro-3-methylbutyl)oxazol-5-yl)-6-(imidazo[1,2-a]pyridin-7-yl) picolinonitrile] — 2.1-fold higher, 147 nM
- CN1Cc2ccc(-c3nc(C#N)ccc3-c3cnc(CC(C)(C)C(F)(F)F)o3)cc2C1=O [Example 22, 6-(2-methyl-3-oxoisoindolin-5-yl)-5-(2-(3,3,3-trifluoro-2,2-dimethylpropyl)-oxazol-5-yl)picolino-nitrile] — within 1.5-fold, 76 nM
- CC(C)(C)Cc1ncc(-c2ccc(C(F)F)nc2-c2ccn3ccnc3c2)o1 [Example 19, 5-(6-(difluoro-methyl)-2-(imidazo-[1,2-a]pyridin-7-yl)pyridin-3-yl)-2-neopentyloxazole] — within 1.5-fold, 73 nM
- CC1(Cc2ncc(-c3cc4c(nc3-c3ccc5ccc(F)nc5c3)C(O)CC4)o2)CCCC1 (stereo not drawn) [Example 42, 2-(2-fluoroquinolin-7-yl)-3-(2-((1-methylcyclopentyl)methyl)oxazol-5-yl)-6,7-dihydro-5H-cyclopenta[b]pyridin-7-ol] — within 1.5-fold, 65 nM
- Cn1cnc2cc(-c3nc(C#N)ccc3-c3cnc(CC(C)(C)C(F)(F)F)o3)ccc21 [Example 114, 6-(1-methyl-1H-benzo[d]imidazol-5-yl)-5-(2-(3,3,3-trifluoro-2,2-dimethylpropyl)oxazol-5-yl)picolinonitrile] — within 1.5-fold, 92 nM
- Cc1nc2cc(-c3nc(C#N)ccc3-c3cnc(CC(C)(C)F)o3)ccc2n1C [Example 89, 6-(1,2-dimethyl-1H-benzo[d]imidazol-5-yl)-5-(2-(2-fluoro-2-methylpropyl)oxazol-5-yl)picolinonitrile] — 1.6-fold higher, 112 nM
- COc1cc2ccc(-c3nc(C)ccc3-c3cnc(C(F)(F)C4CCCC4)o3)cc2nn1 [Example 102, 2-(cyclopentyldifluoromethyl)-5-(2-(3-methoxycinnolin-7-yl)-6-methylpyridin-3-yl)oxazole] — within 1.5-fold, 51 nM
- CC(C)(C)Cc1ncc(-c2ccc(C#N)nc2-c2ccc3cccnc3c2)o1 [Example 11, 5-(2-neopentyl-oxazol-5-yl)-6-(quinolin-7-yl)-picolinonitrile] — the same, 69 nM
- N#Cc1ccc(-c2cnc(CC3CC3)o2)c(-c2ccc3cccnc3c2)n1 [Example 62, 5-(2-(cyclopropylmethyl)oxazol-5-yl)-6-(quinolin-7-yl)picolinonitrile] — 1.5-fold higher, 104 nM
- CC(C)(F)Cc1ncc(-c2ccc(C#N)nc2-c2ccc3cccnc3c2)o1 [Example 80, 5-(2-(2-fluoro-2-methylpropyl)oxazol-5-yl)-6-(quinolin-7-yl) picolinonitrile] — 2-fold higher, 141 nM
